Assay results as given in ChEMBL document CHEMBL1129930, “Analogues of methotrexate in rheumatoid arthritis. 2. Effects of 5-deazaaminopterin, 5,10-dideazaaminopterin, and analogues on type II collagen-induced arthritis in mice” (J Med Chem, 1997).

How the values were obtained:
Mus musculus [1] = assay: Tested for antiinflammatory activity on mouse type II collagen arthritis as Paw swelling* of all animals in each group on day 30 at intraperitoneal dose of 6 mg/kg; assay type: functional
Mus musculus [2] = assay: Incidence of disease (mouse type II collagen) was scored as the percentage of animals within each experimental group that exhibited joint or limb inflammation on day 23 at intraperitoneal dose 6 mg/kg; assay type: functional
Mus musculus [3] = assay: Incidence of disease (mouse type II collagen) was scored as the percentage of animals within each experimental group that exhibited joint or limb inflammation on day 23 at intraperitoneal dose 18 mg/kg; assay type: functional
Mus musculus [4] = assay: Tested for antiinflammatory activity on mouse type II collagen arthritis as Paw swelling* of all animals in each group on day 44 at intraperitoneal dose of 12 mg/kg; assay type: functional
Mus musculus [5] = assay: Incidence of disease (mouse type II collagen) was scored as the percentage of animals within each experimental group that exhibited joint or limb inflammation on day 44 at intraperitoneal of dose 18 mg/kg; assay type: functional
Mus musculus [6] = assay: Tested for antiinflammatory activity on mouse type II collagen arthritis as Paw swelling* of all animals in each group on day 37 at intraperitoneal dose of 6 mg/kg; assay type: functional
[7] = Concentration required to inhibit the growth of chang liver cells.; assay type: functional; conditions: Homo sapiens
Mus musculus [8] = assay: Incidence of disease (mouse type II collagen) was scored as the percentage of animals within each experimental group that exhibited joint or limb inflammation on day 37 at intraperitoneal of dose 6 mg/kg; assay type: functional
Mus musculus [9] = assay: Tested for antiinflammatory activity on mouse type II collagen arthritis as Paw swelling* of all animals in each group on day 30 at intraperitoneal dose of 12 mg/kg; assay type: functional
Mus musculus [10] = assay: Tested for antiinflammatory activity on mouse type II collagen arthritis as Paw swelling* of all animals in each group on day 23 at intraperitoneal dose of 6 mg/kg; assay type: functional
Mus musculus [11] = assay: Incidence of disease (mouse type II collagen) was scored as the percentage of animals within each experimental group that exhibited joint or limb inflammation on day 44 at intraperitoneal of dose 6 mg/kg; assay type: functional
Mus musculus [12] = assay: Incidence of disease (mouse type II collagen) was scored as the percentage of animals within each experimental group that exhibited joint or limb inflammation on day 23 at intraperitoneal dose 12 mg/kg; assay type: functional
Mus musculus [13] = assay: Tested for antiinflammatory activity on mouse type II collagen arthritis as Paw swelling* of all animals in each group on day 37 at intraperitoneal dose of 18 mg/kg; assay type: functional
Mus musculus [14] = assay: Tested for antiinflammatory activity on mouse type II collagen arthritis as Paw swelling* of all animals in each group on day 30 at intraperitoneal dose of 18 mg/kg; assay type: functional
Mus musculus [15] = assay: Tested for antiinflammatory activity on mouse type II collagen arthritis as Paw swelling* of all animals in each group on day 37 at intraperitoneal dose of 12 mg/kg; assay type: functional
L1210 = assay: Concentration required to inhibit the growth of L1210 cells.; assay type: functional, cell-based; conditions: Mus musculus
Mus musculus [16] = assay: Incidence of disease (mouse type II collagen) was scored as the percentage of animals within each experimental group that exhibited joint or limb inflammation on day 37 at intraperitoneal of dose 18 mg/kg; assay type: functional
Mus musculus [17] = assay: Incidence of disease (mouse type II collagen) was scored as the percentage of animals within each experimental group that exhibited joint or limb inflammation on day 30 at intraperitoneal of dose 18 mg/kg; assay type: functional
Mus musculus [18] = assay: Tested for antiinflammatory activity on mouse type II collagen arthritis as Paw swelling* of all animals in each group on day 44 at intraperitoneal dose of 6 mg/kg; assay type: functional
Mus musculus [19] = assay: Incidence of disease (mouse type II collagen) was scored as the percentage of animals within each experimental group that exhibited joint or limb inflammation on day 30 at intraperitoneal of dose 12 mg/kg; assay type: functional
Mus musculus [20] = assay: Tested for antiinflammatory activity on mouse type II collagen arthritis as Paw swelling* of all animals in each group on day 44 at intraperitoneal dose of 18 mg/kg; assay type: functional
Mus musculus [21] = assay: Tested for antiinflammatory activity on mouse type II collagen arthritis as Paw swelling* of all animals in each group on day 23 at intraperitoneal dose of 12 mg/kg; assay type: functional
Mus musculus [22] = assay: Incidence of disease (mouse type II collagen) was scored as the percentage of animals within each experimental group that exhibited joint or limb inflammation on day 30 at intraperitoneal of dose 6 mg/kg; assay type: functional
Mus musculus [23] = assay: Incidence of disease (mouse type II collagen) was scored as the percentage of animals within each experimental group that exhibited joint or limb inflammation on day 44 at intraperitoneal of dose 12 mg/kg; assay type: functional
Mus musculus [24] = assay: Incidence of disease (mouse type II collagen) was scored as the percentage of animals within each experimental group that exhibited joint or limb inflammation on day 37 at intraperitoneal of dose 12 mg/kg; assay type: functional
Mus musculus [25] = assay: Tested for antiinflammatory activity on mouse type II collagen arthritis as Paw swelling* of all animals in each group on day 23 at intraperitoneal dose of 18 mg/kg; assay type: functional
Mus musculus [26] = assay: Incidence of disease (mouse type II collagen) was scored as the percentage of animals within each experimental group that exhibited joint or limb inflammation on day 44 at intraperitoneal dose of 9 mg/kg; assay type: functional
Mus musculus [27] = assay: Incidence of disease (mouse type II collagen) was scored as the percentage of animals within each experimental group that exhibited joint or limb inflammation on day 23 at intraperitoneal dose of 9 mg/kg; assay type: functional
Mus musculus [28] = assay: Tested for antiinflammatory activity on mouse type II collagen arthritis as Paw swelling of all animals in each group on day 30 at intraperitoneal dose of 9 mg/kg; assay type: functional
Mus musculus [29] = assay: Tested for antiinflammatory activity on mouse type II collagen arthritis as Paw swelling of all animals in each group on day 23 at intraperitoneal dose of 4.5 mg/kg; assay type: functional
Mus musculus [30] = assay: Tested for antiinflammatory activity on mouse type II collagen arthritis as Paw swelling of all animals in each group on day 23 at intraperitoneal dose of 9 mg/kg; assay type: functional
Mus musculus [31] = assay: Incidence of disease (mouse type II collagen) was scored as the percentage of animals within each experimental group that exhibited joint or limb inflammation on day 23 at intraperitoneal dose of 4.5 mg/kg; assay type: functional
Mus musculus [32] = assay: Incidence of disease (mouse type II collagen) was scored as the percentage of animals within each experimental group that exhibited joint or limb inflammation on day 37 at intraperitoneal dose of 9 mg/kg; assay type: functional
Mus musculus [33] = assay: Tested for antiinflammatory activity on mouse type II collagen arthritis as Paw swelling of all animals in each group on day 37 at intraperitoneal dose of 9 mg/kg; assay type: functional
Mus musculus [34] = assay: Tested for antiinflammatory activity on mouse type II collagen arthritis as Paw swelling of all animals in each group on day 37 at intraperitoneal dose of 4.5 mg/kg; assay type: functional
Mus musculus [35] = assay: Incidence of disease (mouse type II collagen) was scored as the percentage of animals within each experimental group that exhibited joint or limb inflammation on day 30 at intraperitoneal dose of 9 mg/kg; assay type: functional
Mus musculus [36] = assay: Tested for antiinflammatory activity on mouse type II collagen arthritis as Paw swelling of all animals in each group on day 44 at intraperitoneal dose of 4.5 mg/kg; assay type: functional
Mus musculus [37] = assay: Tested for antiinflammatory activity on mouse type II collagen arthritis as Paw swelling of all animals in each group on day 44 at intraperitoneal dose of 9 mg/kg; assay type: functional
Mus musculus [38] = assay: Incidence of disease (mouse type II collagen) was scored as the percentage of animals within each experimental group that exhibited joint or limb inflammation on day 44 at intraperitoneal dose of 4.5 mg/kg; assay type: functional
Mus musculus [39] = assay: Tested for antiinflammatory activity on mouse type II collagen arthritis as Paw swelling of all animals in each group on day 30 at intraperitoneal dose of 4.5 mg/kg; assay type: functional
Mus musculus [40] = assay: Incidence of disease (mouse type II collagen) was scored as the percentage of animals within each experimental group that exhibited joint or limb inflammation on day 37 at intraperitoneal dose of 4.5 mg/kg; assay type: functional
Mus musculus [41] = assay: Incidence of disease (mouse type II collagen) was scored as the percentage of animals within each experimental group that exhibited joint or limb inflammation on day 30 at intraperitoneal dose of 4.5 mg/kg; assay type: functional

Molecule C#CCN(Cc1cnc2nc(N)nc(N)c2c1)c1ccc(C(=O)NC(CCC(=O)O)C(=O)O)cc1 (configuration not stated) has a Paw swelling (Mus musculus [1]) of 2.32 mm, an Animals (Mus musculus [2]) of 0% and an Animals (Mus musculus [3]) of 0%. For the same molecule, the Paw swelling (Mus musculus [4]) was 2.49 mm, the Animals (Mus musculus [5]) was 38% and the Paw swelling (Mus musculus [6]) was 2.46 mm. The IC50 [7] was 6.3 nM, the Animals (Mus musculus [8]) was 88% and the Paw swelling (Mus musculus [9]) was 2.16 mm. For the same molecule, the Paw swelling (Mus musculus [10]) was 2.12 mm, the Animals (Mus musculus [11]) was 100% and the Animals (Mus musculus [12]) was 0%. For the same molecule, the Paw swelling (Mus musculus [13]) was 2.23 mm, the Paw swelling (Mus musculus [14]) was 2.13 mm and the Paw swelling (Mus musculus [15]) was 2.3 mm. The IC50 (L1210) was 13 nM, the Animals (Mus musculus [16]) was 38% and the Animals (Mus musculus [17]) was 0%. It also gave a Paw swelling (Mus musculus [18]) of 2.65 mm, an Animals (Mus musculus [19]) of 0% and a Paw swelling (Mus musculus [20]) of 2.27 mm. It also gave a Paw swelling (Mus musculus [21]) of 2.17 mm, an Animals (Mus musculus [22]) of 38% and an Animals (Mus musculus [23]) of 75%. It also gave an Animals (Mus musculus [24]) of 50% and a Paw swelling (Mus musculus [25]) of 2.16 mm.
For CCC(Cc1cnc2nc(N)nc(N)c2c1C)c1ccc(C(=O)NC(CCC(=O)O)C(=O)O)cc1 (configuration not stated), the Animals (Mus musculus [26]) was 88%, the Animals (Mus musculus [27]) was 0% and the Paw swelling (Mus musculus [28]) was 2.45 mm. It also gave a Paw swelling (Mus musculus [29]) of 2.1 mm, a Paw swelling (Mus musculus [30]) of 2.12 mm and an Animals (Mus musculus [31]) of 0%. The Animals (Mus musculus [32]) was 88%, the Paw swelling (Mus musculus [33]) was 3.09 mm and the Paw swelling (Mus musculus [34]) was 2.32 mm. The Animals (Mus musculus [35]) was 50%, the Paw swelling (Mus musculus [36]) was 2.68 mm and the Paw swelling (Mus musculus [37]) was 2.99 mm. For the same molecule, the Animals (Mus musculus [38]) was 75%, the Paw swelling (Mus musculus [39]) was 2.18 mm and the Animals (Mus musculus [40]) was 38%. The Animals (Mus musculus [41]) was 12%.
